Values after ≈ are worked out from the molar mass of the structure shown. Like-named read-outs stand apart in the source and are kept apart here. Numbered stars: 1 amine (or outer) side, 2 acyl side, 3 side chain; on linkers, the order of the positions; unused ones are H or OH. Bridge positions count the residues as written; N and C are the ends. Square brackets hold non-standard residues; d marks the D form. Peptide text beside a SMILES is read from it. * marks the point of attachment. X3 = O=C([C@@H](Cc1ccc(CS(=O)(=O)O)cc1)N[*:1])[*:2]; Heptanoyl(6-Me) = CC(C)CCCCC(=O)*; Sulfomethyl = O=S(=O)(O)C*; Nonanoyl = CCCCCCCCC(=O)*; dDab = NCC[C@@H](N)C(=O)O; Octanoyl = CCCCCCCC(=O)*; dDap = NC[C@@H](N)C(=O)O; Dab = NCC[C@H](N)C(=O)O; Dap = NC[C@H](N)C(=O)O
Assays:
Assay type in all cases: cell-based
[1] = Nephrotoxicity assay: in vitro cytotoxicity of HK-2 cells by CCK-8 assay; details: human, HK-2 cells (human renal), 72 h incubation with drug-containing medium
Procedure: In vitro cytotoxicity detection of HK-2 cells was performed by the CCK-8 assay.
The culture medium for human renal HK-2 cells was a complete RPMI-1640 medium (Invitrogen) supplemented with 10% fetal bovine serum (FBS, Gibco). The cryopreservation solution was composed of 90% FBS and 10% dimethyl sulfoxide (DMSO), and the cells were preserved long-term in liquid nitrogen. Cells were cultured in a sterile incubator with a humidified atmosphere containing 5% CO2 at 37°C. When the cell density reached 70%-80%, cell digestion and subculture were conducted. The cyclic lipopeptide compounds prepared in Examples 1-120 were weighed and dissolved in sterile water to prepare a mother solution with a concentration of 1 mg/mL. Drug-containing culture media were then formulated, with the final concentrations set as 500, 250, 200, 100, 50, 25, and 12.5 µg/mL, respectively. Cells were adjusted to a density of 5 × 10^4 cells/mL and seeded into 96-well plates, with 100 µL of cell suspension added to each well. After stable incubation for 24 h, the original medium was replaced with the prepared drug-containing medium, and the plates were incubated in the incubator for an additional 72 h. The medium was gently aspirated, and 100 µL of blank medium containing 10% CCK-8 was added to each well. After incubation in the incubator for 3 h, the optical density (OD) values at 450 nm were measured using a BIOTEK microplate reader. The experiment was repeated three times. For each replicate, polymyxin B was set as the positive drug, and a drug-free blank group was established as the control. The cell viability (%) was calculated by the formula: Cell viability (%) = [(OD of drug-treated group - OD of zero-setting) / (OD of drug-free group - OD of zero-setting)] × 100%. The half-maximal inhibitory concentration (IC50) values were calculated through logarithmic regression analysis.
The cells used for the nephrotoxicity assay were obtained from the ATCC ( American Type Culture Collection). The Cell Counting Kit-8 (CCK-8) used in the assay was supplied by Beyotime Biotechnology Co., Ltd.

[2] = tested on: Acinetobacter baumannii NCTC 13304 (OXA-27)
Procedure: (§1) The minimal inhibitory concentration (MIC) was determined by the broth microdilution method according to the recommended procedures of the Clinical and Laboratory Standards Institute (CLSI).
(§2) An appropriate amount of the cyclic lipopeptide compounds prepared in Examples 1-120 and the reference standards were weighed and dissolved in sterile pure water. An appropriate volume of the mother solution was subjected to ten-fold dilution with sterile Mueller-Hinton (MH) broth to a concentration of 0.256 mg/mL. Half of the drug solution was aliquoted into 96-well reagent reservoirs, while the other half was subjected to two-fold serial dilution with sterile MH broth before being transferred into deep-well reagent reservoirs. The above steps were repeated, so that the drug concentrations in the reagent reservoirs were adjusted to 128, 64, 32, 16, 8, 4, 2, 1, 0.5, 0.25, 0.125 and 0.06 mg/L in sequence, and all solutions were prepared and used immediately. Several colonies were picked from agar plates cultured for 18-24 h and directly suspended in sterile normal saline, and the concentration of the bacterial suspension was adjusted to 0.5 McFarland units. The calibrated bacterial suspension was diluted with MH broth to a concentration of (4-8) × 10^5 colony-forming units per milliliter (CFU/mL) and prepared and used immediately. A volume of 100 µL of the aforementioned compounds of the present disclosure (e.g., the compounds prepared in the examples) and reference solutions at different concentrations was separately pipetted into wells 1 to 12 of sterile 96-well polystyrene plates, and an additional 100 µL of the aforementioned inoculum was added to each well. The final concentrations of the samples in the wells were adjusted to 64, 32, 16, 8, 4, 2, 1, 0.5, 0.25, 0.125, 0.06 and 0.03 mg/L, respectively, and the final concentration of the inoculum in each well was (2-4) × 10^5 CFU/mL. Additional growth control wells were set up, each containing 100 µL of the inoculum and 100 µL of sterile MH broth. The test substances and inocula in all wells were mixed thoroughly and then sealed. The inoculated 96-well plates were incubated in an incubator at 35-37°C for 16-20 h.
(§3) The strains used for the antibacterial activity assay were obtained from the American Type Culture Collection (ATCC) and clinical isolates.
(§4) The strains employed for the antibacterial activity assay included Escherichia coli ATCC BAA-2523, ATCC BAA-2340 (KPC), Klebsiella pneumoniae KPN+19-15, ATCC BAA-1705 (KPC), Pseudomonas aeruginosa PAE19-3, ATCC 27853, Acinetobacter baumannii ABA19-1, and NCTC 13304 (OXA-27).

[3] = tested on: Escherichia coli ATCC BAA-2523
Procedure: as §1, §2, §3, §4

[4] = tested on: Klebsiella pneumoniae KPN+19-15
Procedure: as §1, §2, §3, §4

[5] = tested on: Pseudomonas aeruginosa PAE19-3
Procedure: as §1, §2, §3, §4

[6] = tested on: Acinetobacter baumannii ABA19-1
Procedure: as §1, §2, §3, §4

[7] = tested on: Klebsiella pneumoniae ATCC BAA-1705 (KPC)
Procedure: as §1, §2, §3, §4

[8] = tested on: Escherichia coli ATCC BAA-2340 (KPC)
Procedure: as §1, §2, §3, §4

[9] = tested on: Pseudomonas aeruginosa ATCC 27853
Procedure: as §1, §2, §3, §4

SMILES | IC50 at 72 h [1] [µg/mL] | MIC ([2]; NCTC 13304) [µg/mL] | MIC ([3]; ATCC BAA-2523) [µg/mL] | MIC ([4]; KPN+19-15) [µg/mL] | MIC ([5]; PAE19-3) [µg/mL] | MIC ([6]; ABA19-1) [µg/mL] | MIC ([7]; ATCC BAA-1705) [µg/mL] | MIC ([8]; ATCC BAA-2340) [µg/mL] | MIC ([9]; ATCC 27853) [µg/mL] | MIC ([2]; Acinetobacter baumannii NCTC 13304 (OXA-27)) [µg/mL] | MIC ([3]; Escherichia coli ATCC BAA-2523) [µg/mL] | MIC ([4]; Klebsiella pneumoniae KPN 19-15) [µg/mL] | MIC ([5]; Pseudomonas aeruginosa PAE19-3) [µg/mL] | MIC ([6]; Acinetobacter baumannii ABA19-1) [µg/mL] | MIC ([7]; Klebsiella pneumoniae ATCC BAA-1705 (KPC)) [µg/mL] | MIC ([8]; Escherichia coli ATCC BAA-2340 (KPC)) [µg/mL] | MIC ([9]; Pseudomonas aeruginosa ATCC27853) [µg/mL]
CCCCCCCC(=O)N[C@@H](CCN)C(=O)N[C@H](C(=O)N[C@@H](CN)C(=O)N[C@H]1CCNC(=O)[C@H]([C@@H](C)O)NC(=O)[C@H](CCN)NC(=O)[C@H](CCN)NC(=O)[C@H]([C@@H](C)O)NC(=O)[C@@H](Cc2ccccc2)NC(=O)[C@H](CCN)NC1=O)[C@@H](C)O [Compound 8, Octanoyl-Dab-Thr-Dap-ring(4-10)[Dab-Dab-D-Phe-Thr-Dab-Dab-Thr]] (Octanoyl-[Dab]T[Dap][Dab][Dab][dF]T[Dab][Dab]T; lactam 4-C) | > 500 | ≤0.03 | ≤0.03 | ≤0.03 | 0.25 (≈ 0.215 µM) | ≤0.03 | ≤0.03 | ≤0.03 | 0.125 (≈ 0.107 µM) |  |  |  |  |  |  |  | 
CC(C)CCCCC(=O)N[C@@H](CN)C(=O)N[C@H](C(=O)N[C@H](CCN)C(=O)N[C@H]1CCNC(=O)[C@H]([C@@H](C)O)NC(=O)[C@H](CCN)NC(=O)[C@H](CCN)NC(=O)[C@H](CC(C)C)NC(=O)[C@@H](Cc2ccccc2)NC(=O)[C@H](CCN)NC1=O)[C@@H](C)O [Compound 92, 6-methylheptanoyl-Dap-Thr-D-Dab-ring(4-10)[Dab-Dab-D-Phe-Leu-Dab-Dab-Thr]] ({Heptanoyl(6-Me)}-[Dap]T[dDab][Dab][Dab][dF]L[Dab][Dab]T; lactam 4-C) | 228 ± 18.7 (≈ 194 µM) | 0.03 (≈ 0.0255 µM) | 0.03 (≈ 0.0255 µM) | 0.03 (≈ 0.0255 µM) | 0.5 (≈ 0.425 µM) | 0.03 (≈ 0.0255 µM) | 0.03 (≈ 0.0255 µM) | 0.03 (≈ 0.0255 µM) | 0.5 (≈ 0.425 µM) |  |  |  |  |  |  |  | 
CC(C)CCCCC(=O)N[C@@H](CCN)C(=O)N[C@H](C(=O)N[C@@H](CN)C(=O)N[C@H]1CCNC(=O)[C@H]([C@@H](C)O)NC(=O)[C@H](CCN)NC(=O)[C@H](CCN)NC(=O)[C@H]([C@@H](C)O)NC(=O)[C@@H](Cc2ccc(CS(=O)(=O)O)cc2)NC(=O)[C@H](CCN)NC1=O)[C@@H](C)O [Compound 116, 6-methylheptanoyl-Dab-Thr-Dap-ring(4-10)[Dab-Dab-D-Phe(4-CH2SO3H)-Thr-Dab-Dab-Thr]] ({Heptanoyl(6-Me)}-[Dab]T[Dap][Dab][Dab][X3]T[Dab][Dab]T; lactam 4-C) | > 500 | 0.06 (≈ 0.0477 µM) | 0.03 (≈ 0.0239 µM) | 0.125 (≈ 0.0994 µM) | 0.25 (≈ 0.199 µM) | 0.06 (≈ 0.0477 µM) | 0.125 (≈ 0.0994 µM) | 0.03 (≈ 0.0239 µM) | 0.25 (≈ 0.199 µM) |  |  |  |  |  |  |  | 
CC(C)CCCCC(=O)N[C@@H](CCN)C(=O)N[C@H](C(=O)N[C@@H](CN)C(=O)N[C@H]1CCNC(=O)[C@H]([C@@H](C)O)NC(=O)[C@H](CCN)NC(=O)[C@H](CCN)NC(=O)[C@H]([C@@H](C)O)NC(=O)[C@@H](Cc2ccccc2)NC(=O)[C@H](CCN)NC1=O)[C@@H](C)OCS(=O)(=O)O [Compound 113, 6-methylheptanoyl-Dab-Thr(CH2SO3H)-Dap-ring(4-10)[Dab-Dab-D-Phe-Thr-Dab-Dab-Thr]] ({Heptanoyl(6-Me)}-[Dab]T(Sulfomethyl)[Dap][Dab][Dab][dF]T[Dab][Dab]T; lactam 4-C) | > 500 | 0.06 (≈ 0.0477 µM) | 0.03 (≈ 0.0239 µM) | 0.125 (≈ 0.0994 µM) | 0.25 (≈ 0.199 µM) | 0.06 (≈ 0.0477 µM) | 0.125 (≈ 0.0994 µM) | 0.03 (≈ 0.0239 µM) | 0.25 (≈ 0.199 µM) |  |  |  |  |  |  |  | 
CCCCCCCCC(=O)N[C@@H](CCN)C(=O)N[C@H](C(=O)N[C@@H](CN)C(=O)N[C@H]1CCNC(=O)[C@H]([C@@H](C)O)NC(=O)[C@H](CCN)NC(=O)[C@H](CCN)NC(=O)[C@H]([C@@H](C)O)NC(=O)[C@@H](Cc2ccccc2)NC(=O)[C@H](CCN)NC1=O)[C@@H](C)O [Compound 10, Nonanoyl-Dab-Thr-Dap-ring(4-10)[Dab-Dab-D-Phe-Thr-Dab-Dab-Thr]] (Nonanoyl-[Dab]T[Dap][Dab][Dab][dF]T[Dab][Dab]T; lactam 4-C) | 350 ± 30.7 (≈ 297 µM) | 0.06 (≈ 0.051 µM) | 0.06 (≈ 0.051 µM) | 0.06 (≈ 0.051 µM) | 0.5 (≈ 0.425 µM) | 0.06 (≈ 0.051 µM) | 0.06 (≈ 0.051 µM) | 0.06 (≈ 0.051 µM) | 0.25 (≈ 0.212 µM) |  |  |  |  |  |  |  | 
CCCCCCCC(=O)N[C@@H](CCN)C(=O)N[C@H](C(=O)N[C@H](CN)C(=O)N[C@H]1CCNC(=O)[C@H]([C@@H](C)O)NC(=O)[C@H](CCN)NC(=O)[C@H](CCN)NC(=O)[C@H](CC(C)C)NC(=O)[C@@H](Cc2ccccc2)NC(=O)[C@H](CCN)NC1=O)[C@@H](C)O [Compound 33, Octanoyl-Dab-Thr-D-Dap-ring(4-10)[Dab-Dab-D-Phe-Leu-Dab-Dab-Thr]] (Octanoyl-[Dab]T[dDap][Dab][Dab][dF]L[Dab][Dab]T; lactam 4-C) | 339 ± 9.1 (≈ 289 µM) |  |  |  |  |  |  |  |  | 0.03 (≈ 0.0255 µM) | 0.03 (≈ 0.0255 µM) | 0.03 (≈ 0.0255 µM) | 0.25 (≈ 0.213 µM) | 0.03 (≈ 0.0255 µM) | 0.03 (≈ 0.0255 µM) | 0.03 (≈ 0.0255 µM) | 0.03 (≈ 0.0255 µM)
